Data: US20100087649A1, “QUINOLINONE DERIVATIVES” (priority 2006, published 2010)

Experiments:
[1] = test system: wild-type HIV-IIIB strain; assay: Antiviral analysis EGFP: anti-HIV activity in MT4 LTR-EGFP cells; format: cell-based, HIV-1; conditions: fluorescence of HIV-infected cells reduced by 50%, three days after infection
Experimental: The compounds of the present invention were tested for anti-viral activity in a cellular assay, which was performed according to the following procedure.
The human T-cell line MT4 is engineered with Green Fluorescent Protein (GFP) and an HIV-specific promoter, HIV-1 long terminal repeat (LTR). This cell line is designated MT4 LTR-EGFP, and can be used for the in vitro evaluation of anti-HIV activity of investigational compounds. In HIV-1 infected cells, the Tat protein is produced which upregulates the LTR promotor and finally leads to stimulation of the GFP reporter production, allowing measuring ongoing HIV-infection fluorometrically.
(§1) Effective concentration values such as 50% effective concentration (EC50) can be determined and are usually expressed in μM. An EC50 value is defined as the concentration of test compound that reduces the fluorescence of HIV-infected cells by 50%. The 50% cytotoxic concentration (CC50 in μM) is defined as the concentration of test compound that reduces fluorescence of the mock-infected cells by 50%. The ratio of CC50 to EC50 is defined as the selectivity index (SI) and is an indication of the selectivity of the anti-HIV activity of the inhibitor. The ultimate monitoring of HIV-1 infection and cytotoxicity is done using a scanning microscope. Image analysis allows very sensitive detection of viral infection. Measurements are done before cell necrosis, which usually takes place about five days after infection, in particular measurements are performed three days after infection.
The following Table 5 lists EC50 values, expressed in micromole/liter, against wild-type HIV-IIIB strain, for a selected number of compounds of the invention.

[2] = test system: MT4 CMV-EGFP cells; assay: Cytotoxicity in mock-infected MT4 CMV-EGFP cells; format: cell-based, human; conditions: fluorescence reduced by 50%
Excerpt: Analogously, MT4 cells are engineered with GFP and the constitutional cytomegalovirus (CMV) promotor. This cell line is designated MT4 CMV-EGFP, and can be used for the in vitro evaluation of cytotoxicity of investigational compounds. In this cell line, GFP levels are comparably to those of infected MT4 LTR-EGFP cells. Cytotoxic investigational compounds reduce GFP levels of mock-infected MT4 CMV-EGFP cells.
as §1

Row | SMILES | EC50 [1] | CC50 [2]
1 | CN(C)CCNc1c(C#N)c(=O)n(-c2ccc([N+](=O)[O-])cc2)c2ccccc12 [compound 142] | 3.28 µM | 54.7 µM
2 | Cc1ccc(-n2c(=O)c(C#N)c(N)c3ccc(-c4ccsc4)cc32)cc1C#N [compound 125] | 4.11 µM | > 100 µM
3 | Cc1ccc(-n2c(=O)c(C#N)c(N)c3ccc(Cl)cc32)cc1C#N [compound 162] | 0.87 µM | > 100 µM
4 | N#Cc1cc2cc(OCCN)ccc2n(-c2ccc([N+](=O)[O-])cc2)c1=O [compound 86] | 1.18 µM | > 32 µM
5 | N#Cc1cc2ccc(-c3cccnc3)cc2n(-c2ccc([N+](=O)[O-])cc2)c1=O [compound 33] | 0.83 µM | > 100 µM
6 | CCC(CC)NCCCOc1ccc2cc(C#N)c(=O)n(-c3ccc([N+](=O)[O-])cc3)c2c1 [compound 68] | 0.73 µM | 51.6 µM
7 | CN(C)CCOc1ccc2c(c1)cc(C#N)c(=O)n2-c1ccc([N+](=O)[O-])cc1 [compound 90] | 0.89 µM | > 32 µM
8 | CNCCNc1c(C#N)c(=O)n(-c2ccc([N+](=O)[O-])cc2)c2ccccc12 [compound 135] | 3.37 µM | 53.2 µM
9 | N#Cc1cc2ccc(NCCCN)cc2n(-c2ccc([N+](=O)[O-])cc2)c1=O [compound 19] | 0.91 µM | 30.6 µM
10 | CCN(CC)CCOc1ccc2cc(C#N)c(=O)n(-c3ccc([N+](=O)[O-])cc3)c2c1 [compound 59] | 12.9 µM | > 32 µM
11 | N#Cc1cc2ccc(OCCCO)cc2n(-c2ccc([N+](=O)[O-])cc2)c1=O [compound 76] | 1.03 µM | > 100 µM
12 | N#Cc1c(N)c2cccnc2n(-c2ccc([N+](=O)[O-])cc2)c1=O [compound 129] | 18.3 µM | > 32 µM
13 | Cc1ccc(-n2c(=O)c(C#N)cc3ccc(-c4cccc(CO)c4)cc32)cc1C#N [compound 156] | 2.58 µM | 64.9 µM
14 | N#Cc1cc2ccc(NCCCN3CCCC3)cc2n(-c2ccc([N+](=O)[O-])cc2)c1=O [compound 21] | 0.21 µM | 69.5 µM
15 | Cc1ccc(-n2c(=O)c(C#N)cc3ccc(-c4cccc(CN(C)C)c4)cc32)cc1C#N [compound 152] | 0.58 µM | 3.95 µM
16 | CNc1c(C#N)c(=O)n(-c2ccc(C)c(C#N)c2)c2ccccc12 [compound 165] | 7.94 µM | > 100 µM
17 | N#Cc1cc2cc(OC[C@@H]3CCCN3)ccc2n(-c2ccc([N+](=O)[O-])cc2)c1=O [compound 88] | 1.41 µM | 6.54 µM
18 | N#Cc1c(N)c2ccc(Cl)cc2n(-c2ccc([N+](=O)[O-])cc2)c1=O [compound 102] | 0.85 µM | > 32 µM
19 | N#Cc1cc2ccc(-c3ccoc3)cc2n(-c2ccc([N+](=O)[O-])cc2)c1=O [compound 41] | 0.28 µM | 38.1 µM
20 | N#Cc1ccc(-n2c(=O)c(C#N)cc3ccccc32)cc1 [compound 2] | > 32 µM | > 32 µM
21 | N#Cc1c(NCCCN)c2ccccc2n(-c2ccc([N+](=O)[O-])cc2)c1=O [compound 137] | 3.66 µM | 45.1 µM
22 | Cc1ccc(-n2c(=O)c(C#N)cc3ccccc32)cn1 [compound 5] | > 32 µM | > 32 µM
23 | COc1ccc2c(N)c(C#N)c(=O)n(-c3ccc([N+](=O)[O-])cc3)c2c1 [compound 116] | 0.78 µM | > 100 µM
24 | N#Cc1c(NCc2ccccn2)c2ccccc2n(-c2ccc([N+](=O)[O-])cc2)c1=O [compound 131] | 15.9 µM | > 100 µM
25 | N#Cc1c(N)c2ccc(C(F)(F)F)cc2n(-c2ccc([N+](=O)[O-])cc2)c1=O [compound 114] | 3.94 µM | > 100 µM

Row | SMILES | EC50 [1] | CC50 [2]
26 | CN(C)CCCOc1ccc2cc(C#N)c(=O)n(-c3ccc([N+](=O)[O-])cc3)c2c1 [compound 64] | 0.47 µM | 70.6 µM
27 | CN(C)CCCNc1ccc2cc(C#N)c(=O)n(-c3ccc([N+](=O)[O-])cc3)c2c1 [compound 20] | 0.3 µM | 49 µM
28 | CNCCCNc1ccc2cc(C#N)c(=O)n(-c3ccc([N+](=O)[O-])cc3)c2c1 [compound 22] | 0.36 µM | 88.7 µM
29 | N#Cc1cc2cc(OCCN3CCCC3)ccc2n(-c2ccc([N+](=O)[O-])cc2)c1=O [compound 89] | 1.57 µM | > 32 µM
30 | CN(C)CCOc1ccc2cc(C#N)c(=O)n(-c3ccc([N+](=O)[O-])cc3)c2c1 [compound 62] | 4.29 µM | > 32 µM
31 | N#Cc1c(NCCN)c2ccccc2n(-c2ccc([N+](=O)[O-])cc2)c1=O [compound 133] | 0.23 µM | 20.1 µM
32 | N#Cc1c(NCCc2c[nH]cn2)c2ccccc2n(-c2ccc([N+](=O)[O-])cc2)c1=O [compound 144] | 3.84 µM | > 100 µM
33 | N#Cc1cc2ccc(-c3cccc(CN)c3)cc2n(-c2ccc([N+](=O)[O-])cc2)c1=O [compound 30] | 0.63 µM | 24.7 µM
34 | N#Cc1cc2ccc(-c3cccc(CO)c3)cc2n(-c2ccc([N+](=O)[O-])cc2)c1=O [compound 38] | 0.61 µM | 18.6 µM
35 | N#Cc1cc2ccccc2n(-c2ccc([N+](=O)[O-])cn2)c1=O [compound 3] | 4.8 µM | > 32 µM
36 | N#Cc1cc2ccc(OCCCN3CCCC3)cc2n(-c2ccc([N+](=O)[O-])cc2)c1=O [compound 73] | 0.42 µM | 36.4 µM
37 | CN(C)CCCNc1c(C#N)c(=O)n(-c2ccc([N+](=O)[O-])cc2)c2ccccc12 [compound 139] | 2.16 µM | 59.5 µM
38 | N#Cc1c(N)c2cc(F)c(Cl)cc2n(-c2ccc([N+](=O)[O-])cc2)c1=O [compound 108] | 0.9 µM | > 100 µM
39 | N#Cc1cc2ccc(-c3cscn3)cc2n(-c2ccc([N+](=O)[O-])cc2)c1=O [compound 81] | 0.15 µM | > 100 µM
40 | N#Cc1cc2ccc(OCCN3CCNCC3)cc2n(-c2ccc([N+](=O)[O-])cc2)c1=O [compound 61] | 3.65 µM | > 32 µM
41 | N#Cc1cc2ccc(-c3ccc(C(=O)O)cc3)cc2n(-c2ccc([N+](=O)[O-])cc2)c1=O [compound 49] | > 100 µM | > 100 µM
42 | N#Cc1cc2ccc(OCCCN3CCCCC3)cc2n(-c2ccc([N+](=O)[O-])cc2)c1=O [compound 67] | 1.17 µM | > 32 µM
43 | Cc1ccc(-n2c(=O)c(C#N)cc3ccc(-c4cc[nH]n4)cc32)cc1C#N [compound 153] | 0.53 µM | > 100 µM
44 | N#Cc1cc2ccc(-c3ccncc3)cc2n(-c2ccc([N+](=O)[O-])cc2)c1=O [compound 29] | 0.92 µM | > 32 µM
45 | N#Cc1cc2ccc(-c3ccccn3)cc2n(-c2ccc([N+](=O)[O-])cc2)c1=O [compound 82] | 0.54 µM | > 100 µM
46 | CN(C)Cc1cccc(-c2ccc3cc(C#N)c(=O)n(-c4ccc([N+](=O)[O-])cc4)c3c2)c1 [compound 45] | 0.14 µM | 17.1 µM
47 | N#Cc1c(NCCCO)c2ccccc2n(-c2ccc([N+](=O)[O-])cc2)c1=O [compound 138] | 12 µM | > 100 µM
48 | N#Cc1cc2ccc(OCCCCN)cc2n(-c2ccc([N+](=O)[O-])cc2)c1=O [compound 60] | 3.76 µM | > 32 µM
49 | N#Cc1cc2ccc(-c3cccs3)cc2n(-c2ccc([N+](=O)[O-])cc2)c1=O [compound 36] | 0.76 µM | > 100 µM
